This assay deals with dfrB1 WT gene (dehydrofolate reductase conferring resistance to trimethoprim). The conditions noted are these: resistance conferred by dfrB1 WT gene.

This note sets out measurements from patent publication US20060177839A1, “Method for modulating the evolution of a polypeptide encoded by a nucleic acid sequence” (priority 2004, published 2006).

The structures appear in SMILES notation.

`COc1cc(Cc2cnc(N)nc2N)cc(OC)c1OC` [trimethoprim]: the MIC came to 512 micg/ml.
